{"source": "patent US20200222474A1", "about": "“COMPOSITIONS AND METHODS FOR INCREASING PHYTOCHEMICAL BIOAVAILABLITY AND BIOACTIVITY” (North Carolina State University, priority 2017, published 2020)", "system": "L. acidophilus NCFM", "test": "RNA-seq transcriptional analysis of L. acidophilus NCFM growing on plant glycosides", "format": "cell-based, Lactobacillus acidophilus", "key": {"[1]": {"conditions": "LBA1481 D-ribose-binding protein precursor, COG G"}, "[2]": {"conditions": "LBA1482 Ribose ABC transporter, COG G"}, "[3]": {"conditions": "LBA1483 Ribose ABC transporter ATP binding protein, COG G"}, "[4]": {"conditions": "LBA1484 D-ribose pyranase, COG G"}, "[5]": {"conditions": "LBA1494 Lincomycin-resistance protein, COG GEPR"}, "[6]": {"conditions": "LBA1607 Phosphatidylserine decarboxylase precursor, COG I"}, "[7]": {"conditions": "LBA1632 NAD-dependent aldehyde dehydrogenase, COG C"}, "[8]": {"conditions": "LBA1653 Nicotinamide mononucleotide, COG H"}, "[9]": {"conditions": "LBA1684 Putative PTS system IIA component, COG G"}, "[10]": {"conditions": "LBA1689 Maltose-6′-phosphate Oucosidase, COG G"}, "[11]": {"conditions": "LBA1700 Transcriptional regulator-type, COG K"}, "[12]": {"conditions": "LBA1701 Melibiose operon regulatory protein, COG K"}, "[13]": {"conditions": "LBA1705 PTS system IIBC component, COG G"}, "[14]": {"conditions": "LBA1708 Transcriptional antiterminator, COG K"}, "[15]": {"conditions": "LBA1710 Thermostable pullulanase, COG G"}, "[16]": {"conditions": "LBA1812 Alpha-glucosidase II, COG G"}, "[17]": {"conditions": "LBA1870 Maltose phosphorylase, COG G"}, "[18]": {"conditions": "LBA1872 Oligo-1,6-glucosidase, COG G"}, "[19]": {"conditions": "LBA1955 Transcription regulator family protein, COG K"}, "[20]": {"conditions": "gene LBA0046 (Hypothetical protein)"}, "[21]": {"conditions": "gene LBA0149 (Putative nucleotide-binding protein)"}, "[22]": {"conditions": "gene LBA0263 (Hypothetical protein)"}}, "data": [{"compound": "OCc1ccccc1O[C@@H]1O[C@H](CO)[C@@H](O)[C@H](O)[C@H]1O", "note": "[Salicin]", "values": [{"measurement": "Log2 differential normalized TPM ratio compared to glucose", "setting": "[1]", "value": 0.4}, {"measurement": "Log2 differential normalized TPM ratio compared to lactose", "setting": "[1]", "value": "−0.4"}, {"measurement": "Transcripts per million (rpm)", "setting": "[1]", "value": 6.4, "unit": "rpm"}, {"measurement": "Log2 differential normalized TPM ratio compared to glucose", "setting": "[2]", "value": 0.7}, {"measurement": "Log2 differential normalized TPM ratio compared to lactose", "setting": "[2]", "value": "−0.4"}, {"measurement": "Transcripts per million (rpm)", "setting": "[2]", "value": 6.1, "unit": "rpm"}, {"measurement": "Log2 differential normalized TPM ratio compared to glucose", "setting": "[3]", "value": 0.4}, {"measurement": "Log2 differential normalized TPM ratio compared to lactose", "setting": "[3]", "value": "−0.7"}, {"measurement": "Transcripts per million (rpm)", "setting": "[3]", "value": 4.2, "unit": "rpm"}, {"measurement": "Log2 differential normalized TPM ratio compared to glucose", "setting": "[4]", "value": 0.2}, {"measurement": "Log2 differential normalized TPM ratio compared to lactose", "setting": "[4]", "value": "−0.5"}, {"measurement": "Transcripts per million (rpm)", "setting": "[4]", "value": 4.5, "unit": "rpm"}, {"measurement": "Log2 differential normalized TPM ratio compared to glucose", "setting": "LBA1485 Ribokinase, COG G", "value": 0.5}, {"measurement": "Log2 differential normalized TPM ratio compared to lactose", "setting": "LBA1485 Ribokinase, COG G", "value": "−0.3"}, {"measurement": "Transcripts per million (rpm)", "setting": "LBA1485 Ribokinase, COG G", "value": 4.5, "unit": "rpm"}, {"measurement": "Log2 differential normalized TPM ratio compared to glucose", "setting": "[5]", "value": 0.6}, {"measurement": "Log2 differential normalized TPM ratio compared to lactose", "setting": "[5]", "value": 0.5}, {"measurement": "Transcripts per million (rpm)", "setting": "[5]", "value": 8.2, "unit": "rpm"}, {"measurement": "Log2 differential normalized TPM ratio compared to glucose", "setting": "[6]", "value": 0.9}, {"measurement": "Log2 differential normalized TPM ratio compared to lactose", "setting": "[6]", "value": "−0.2"}, {"measurement": "Transcripts per million (rpm)", "setting": "[6]", "value": 37.9, "unit": "rpm"}, {"measurement": "Log2 differential normalized TPM ratio compared to glucose", "setting": "[7]", "value": 2}, {"measurement": "Log2 differential normalized TPM ratio compared to lactose", "setting": "[7]", "value": 0.2}, {"measurement": "Transcripts per million (rpm)", "setting": "[7]", "value": 300.2, "unit": "rpm"}, {"measurement": "Log2 differential normalized TPM ratio compared to glucose", "setting": "[8]", "value": 1.3}, {"measurement": "Log2 differential normalized TPM ratio compared to lactose", "setting": "[8]", "value": 0.7}, {"measurement": "Transcripts per million (rpm)", "setting": "[8]", "value": 618.8, "unit": "rpm"}, {"measurement": "Log2 differential normalized TPM ratio compared to glucose", "setting": "[9]", "value": 2.6}, {"measurement": "Log2 differential normalized TPM ratio compared to lactose", "setting": "[9]", "value": 0.6}, {"measurement": "Transcripts per million (rpm)", "setting": "[9]", "value": 76.9, "unit": "rpm"}, {"measurement": "Log2 differential normalized TPM ratio compared to glucose", "setting": "[10]", "value": 3.7}, {"measurement": "Log2 differential normalized TPM ratio compared to lactose", "setting": "[10]", "value": 2.2}, {"measurement": "Transcripts per million (rpm)", "setting": "[10]", "value": 47.4, "unit": "rpm"}, {"measurement": "Log2 differential normalized TPM ratio compared to glucose", "setting": "[11]", "value": 0.1}, {"measurement": "Log2 differential normalized TPM ratio compared to lactose", "setting": "[11]", "value": "−0.4"}, {"measurement": "Transcripts per million (rpm)", "setting": "[11]", "value": 23, "unit": "rpm"}, {"measurement": "Log2 differential normalized TPM ratio compared to glucose", "setting": "[12]", "value": 1}, {"measurement": "Log2 differential normalized TPM ratio compared to lactose", "setting": "[12]", "value": 0.2}, {"measurement": "Transcripts per million (rpm)", "setting": "[12]", "value": 84.1, "unit": "rpm"}, {"measurement": "Log2 differential normalized TPM ratio compared to glucose", "setting": "[13]", "value": 1.3}, {"measurement": "Log2 differential normalized TPM ratio compared to lactose", "setting": "[13]", "value": 0.4}, {"measurement": "Transcripts per million (rpm)", "setting": "[13]", "value": 8.4, "unit": "rpm"}, {"measurement": "Log2 differential normalized TPM ratio compared to glucose", "setting": "[14]", "value": 1.2}, {"measurement": "Log2 differential normalized TPM ratio compared to lactose", "setting": "[14]", "value": "−0.2"}, {"measurement": "Transcripts per million (rpm)", "setting": "[14]", "value": 1.3, "unit": "rpm"}, {"measurement": "Log2 differential normalized TPM ratio compared to glucose", "setting": "[15]", "value": 0.5}, {"measurement": "Log2 differential normalized TPM ratio compared to lactose", "setting": "[15]", "value": 0.1}, {"measurement": "Transcripts per million (rpm)", "setting": "[15]", "value": 10.8, "unit": "rpm"}, {"measurement": "Log2 differential normalized TPM ratio compared to glucose", "setting": "LBA1723 Transposase, COG L", "value": 0.5}, {"measurement": "Log2 differential normalized TPM ratio compared to lactose", "setting": "LBA1723 Transposase, COG L", "value": 0.2}, {"measurement": "Transcripts per million (rpm)", "setting": "LBA1723 Transposase, COG L", "value": 75.5, "unit": "rpm"}, {"measurement": "Log2 differential normalized TPM ratio compared to glucose", "setting": "[16]", "value": 2.2}, {"measurement": "Log2 differential normalized TPM ratio compared to lactose", "setting": "[16]", "value": 0.1}, {"measurement": "Transcripts per million (rpm)", "setting": "[16]", "value": 75.4, "unit": "rpm"}, {"measurement": "Log2 differential normalized TPM ratio compared to glucose", "setting": "[17]", "value": "−0.9"}, {"measurement": "Log2 differential normalized TPM ratio compared to lactose", "setting": "[17]", "value": 0.2}, {"measurement": "Transcripts per million (rpm)", "setting": "[17]", "value": 55.6, "unit": "rpm"}, {"measurement": "Log2 differential normalized TPM ratio compared to glucose", "setting": "LBA1871 Neopullulanase, COG G", "value": 0.9}, {"measurement": "Log2 differential normalized TPM ratio compared to lactose", "setting": "LBA1871 Neopullulanase, COG G", "value": 0.2}, {"measurement": "Transcripts per million (rpm)", "setting": "LBA1871 Neopullulanase, COG G", "value": 5.1, "unit": "rpm"}, {"measurement": "Log2 differential normalized TPM ratio compared to glucose", "setting": "[18]", "value": 1}, {"measurement": "Log2 differential normalized TPM ratio compared to lactose", "setting": "[18]", "value": 0.6}, {"measurement": "Transcripts per million (rpm)", "setting": "[18]", "value": 6.2, "unit": "rpm"}, {"measurement": "Log2 differential normalized TPM ratio compared to glucose", "setting": "LBA1873 Acetate kinase, COG C", "value": 1.2}, {"measurement": "Log2 differential normalized TPM ratio compared to lactose", "setting": "LBA1873 Acetate kinase, COG C", "value": "−0.2"}, {"measurement": "Transcripts per million (rpm)", "setting": "LBA1873 Acetate kinase, COG C", "value": 8.3, "unit": "rpm"}, {"measurement": "Log2 differential normalized TPM ratio compared to glucose", "setting": "LBA1878 Glycerol kinase, COG C", "value": 0.1}, {"measurement": "Log2 differential normalized TPM ratio compared to lactose", "setting": "LBA1878 Glycerol kinase, COG C", "value": 0}, {"measurement": "Transcripts per million (rpm)", "setting": "LBA1878 Glycerol kinase, COG C", "value": 9.3, "unit": "rpm"}, {"measurement": "Log2 differential normalized TPM ratio compared to glucose", "setting": "[19]", "value": "−0.3"}, {"measurement": "Log2 differential normalized TPM ratio compared to lactose", "setting": "[19]", "value": 0.1}, {"measurement": "Transcripts per million (rpm)", "setting": "[19]", "value": 428.6, "unit": "rpm"}, {"measurement": "number of up-regulated genes", "setting": "RNA-seq, compared to glucose", "value": 33, "unit": "genes"}, {"measurement": "number of uniquely induced genes", "setting": "RNA-seq, up-regulated genes not shared with the other PGs", "value": 0}, {"measurement": "Log2 differential normalized TPM ratio compared to glucose", "setting": "[20]", "value": "−0.2"}, {"measurement": "Log2 differential normalized TPM ratio compared to lactose", "setting": "[20]", "value": "−0.9"}, {"measurement": "Transcripts per million (rpm)", "setting": "[20]", "value": 270.7, "unit": "rpm"}, {"measurement": "Log2 differential normalized TPM ratio compared to glucose", "setting": "[21]", "value": 1.2}, {"measurement": "Log2 differential normalized TPM ratio compared to lactose", "setting": "[21]", "value": 0.4}, {"measurement": "Transcripts per million (rpm)", "setting": "[21]", "value": 1141, "unit": "rpm"}, {"measurement": "Log2 differential normalized TPM ratio compared to glucose", "setting": "[22]", "value": 0.9}, {"measurement": "Log2 differential normalized TPM ratio compared to lactose", "setting": "[22]", "value": 0.1}, {"measurement": "Transcripts per million (rpm)", "setting": "[22]", "value": 30.2, "unit": "rpm"}, {"measurement": "Log2 differential normalized TPM ratio compared to glucose", "setting": "gene LBA0282 (Hypothetical protein)", "value": 0.7}]}]}
